Values of other authors as cited in patent US20100143322A1, “USE OF INHIBITORS OF N-METHYL TRANSFERASES FOR THE THERAPY OF PARKINSON'S DISEASE” (priority 2005, published 2010).

Biological target: T1, phenylethanolamine N-methyl transferase (PNMT) (Homo sapiens, UniProt P11086)
T1 sequence (P11086 1-282): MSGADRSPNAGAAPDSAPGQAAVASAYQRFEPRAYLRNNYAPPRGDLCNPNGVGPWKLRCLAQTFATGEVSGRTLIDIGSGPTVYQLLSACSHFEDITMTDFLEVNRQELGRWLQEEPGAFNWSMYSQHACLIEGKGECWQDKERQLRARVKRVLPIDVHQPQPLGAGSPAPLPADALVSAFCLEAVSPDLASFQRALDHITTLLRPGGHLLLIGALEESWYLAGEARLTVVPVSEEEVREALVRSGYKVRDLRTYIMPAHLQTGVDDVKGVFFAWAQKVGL
Settings: less than 2 mg of Ala-Cys-Cys, isolated from rabbit liver and purified

Substance: Ala-Cys-Cys
- inhibition of the PNMT in the PNMT test: > 90%
